Data taken from patent US20070027181A1, “Benzylisoquinoline derivative- or bisbenzylisoquinoline derivative-containing psychotropic agent, analgesic and/or antiphlogistic, and health food” (EDUCATION CENTER OF TRADITIONAL, priority 2004, published 2007).

Experiments:
mice [1] = test: glass ball-covering behavior test (obsessive compulsive disorders); format: in vivo, Male ICR mice
Method: (§1) In the following Examples, all extracts and drugs used were dissolved in physiological saline before use for i.p. administration and the dose was 0.1 ml of physiological saline per 10 g of mouse body weight in either case. All extracts and drugs were suspended in physiological saline containing 1% sodium carboxymethylcellulose before use for oral administration and the dose was 0.1 ml of 1% sodium carboxymethylcellulose-containing physiological saline suspension per 10 g of mouse body weight in either case. Male ICR mice (Japan SLC) having a body weight of 25 to 30 g were used in the tests below unless otherwise stated, and were fed in advance at a room temperature of 23±1° C. and a relative humidity of 55±5% in the environment of a cycle of 12-hour-light from 7 a.m. to 7 p.m. and 12-hour-dark from 7 p.m. to 7 a.m. for 3 to 5 days. The mice were allowed to have water and feed freely.
In evaluating glass ball-covering behavior, wood chip for breeding (beta chip) (Oriental Yeast Co., Ltd.) was placed in the transparent cage described in Example 3 to a depth of 5 cm, on which 20 glass balls (diameter: 1.5 cm) were placed evenly.
Twenty-one mice were grouped into three groups each of seven mice, to which 25 mg/kg of neferine hydrochloride (treatment group 6-1), 50 mg/kg of the same (treatment group 6-2), and physiological saline (negative control group) were administered intraperitoneally, respectively. A mouse was placed in the cage 15 minutes after administration, and the number of the glass balls not covered with the wood chip was counted by visual observation at an interval of 10 minutes. The number of balls having ⅔ or more of the surface thereof being embedded in the wood chip when the cage was observed from above was counted as the criteria for judgment.

mice [2] = test: acetic acid-induced writhing test; format: in vivo, Male ICR mice
Method: as §1
An acetic acid-induced writhing test is a method wherein analgesic action of a compound is determined utilizing this. The number of this writhing is compared between a physiological saline-administered control group and a test drug-administered group, and suppression of the number of writhing by the test drug is investigated thereby assessing its analgesic action.
Seven to ten mice per group were used. Neferine hydrochloride was subcutaneously administered to mice at their back at a dose of 5 mg/kg, 10 mg/kg, 25 mg/kg, 50 mg/kg or 100 mg/kg and, after 15 minutes, a 0.6% by weight solution of acetic acid in water was intraperitoneally administered at 0.1 mL/10 g body weight. The number of writhing was counted every ten minutes for 30 minutes from immediately after acetic acid administration (0 to 10 min, 10 to 20 min, 20 to 30 min). In addition, the total number of writhing for 30 minutes from immediately after acetic acid administration was also obtained. Regarding the resulting measurements, a significant difference test was performed by a Dunnet multiple comparison test method.
According to the same manner as in acetic acid-induced writhing test-1 except that acetic acid was intraperitoneally administered 30 minutes after subcutaneous administration of neferine in the aforementioned acetic acid-induced writhing test-1, an acetic acid-induced writhing test was performed. However, the dose of neferine was only 50 mg/kg.
According to the same manner as in the acetic acid-induced writhing test-1 except that acetic acid was intraperitoneally administered 30 minutes after oral administration of neferine in the aforementioned acetic acid-induced writhing test-1, an acetic acid-induced writhing test was performed. However, five to six mice per group were used. The dose of neferine was 10 mg/kg and 50 mg/kg. Further, aspirin was used as a positive control drug. The dose of aspirin was 50 mg/kg.
(§2) According to the same manner as in acetic acid-induced writhing test-1 except that armepavine was used in place of neferine in the aforementioned acetic acid-induced writhing test-1, an acetic acid-induced writhing test was performed. However, the dose of armepavine was 5 mg/kg and 10 mg/kg.
as §2, with “O-methylarmepavine” for “armepavine”

[3] = Seibu et al., Journal of Natural Products 49 (1986); no specific data; cited from earlier work
mice [4] = test: suppression of the enhancement of ultromotivity by methamphetamine; format: in vivo, Male ICR mice; conditions: methamphetamine 1 mg/kg 15 minutes later, 60 minutes
Method: as §1, with “The mice were allowed to have water and feed freely.” left out
Fifteen mice were grouped into three groups of five mice, to which 50 mg/kg of neferine hydrochloride (treatment group 3-1), 100 mg/kg of the same (treatment group 3-2), and only physiological saline (negative control group) were administered respectively intraperitoneally. […] After administration of methamphetamine, each of the mice was placed in a transparent polycarbonate cage (22.5 cm×33.8 cm×14.0 cm), where the ultromotivity of the mouse was analyzed for 60 minutes by using a locomotor activity analyzer (NS-AS01, Neuroscience Inc.).

mice [5] = conditions: Ito et al., abstract of the Japanese Society of Pharmacognosy; cited from earlier work
[6] = 5 mg/kg s.c. 15 minutes before acetic acid
[7] = 10 mg/kg oral 30 minutes before acetic acid
[8] = 10 mg/kg s.c. 15 minutes before acetic acid
[9] = 25 mg/kg s.c. 15 minutes before acetic acid
[10] = 50 mg/kg oral 30 minutes before acetic acid
[11] = 50 mg/kg s.c. 15 minutes before acetic acid
[12] = 50 mg/kg s.c. 30 minutes before acetic acid
[13] = 100 mg/kg s.c. 15 minutes before acetic acid

Q: For `COc1ccc(C[C@@H]2c3cc(Oc4cc(C[C@@H]5c6cc(OC)c(OC)cc6CCN5C)ccc4O)c(OC)cc3CCN2C)cc1` [neferine], which “Number of glass balls covered with wood chip After 20 minutes” value (mice [1]; 25 mg/kg i.p.) is on record?
A: Its value is 7.

Q: And the “Number of glass balls covered with wood chip After 30 minutes” value (mice [1]; 25 mg/kg i.p.)?
A: Its value is 10.

Q: And the “Number of glass balls covered with wood chip After 10 minutes” value (mice [1]; 25 mg/kg i.p., placed in cage 15 minutes after administration)?
A: The value was 4.

Q: And the “Number of glass balls covered with wood chip After 10 minutes” value (mice [1]; 50 mg/kg i.p.)?
A: Its value is 3.

Q: And the “Number of glass balls covered with wood chip After 20 minutes” value (mice [1]; 50 mg/kg i.p.)?
A: The value was 6.

Q: And the “Number of glass balls covered with wood chip After 30 minutes” value (mice [1]; 50 mg/kg i.p.)?
A: Its value is 9.

Q: And the “Number of writhing 0-10 min.” value (mice [2]; [6])?
A: The value was 21.8 ± 2.30.

Q: What about the “Number of writhing 0-30 min.” value (mice [2]; [6]) of the same molecule?
A: The value was 51.0 ± 5.34.

Q: And the “Number of writhing 10-20 min.” value (mice [2]; [6])?
A: The value was 19.0 ± 2.14.

Q: And the “Number of writhing 20-30 min.” value (mice [2]; [6])?
A: The value was 10.7 ± 2.04.

Q: And the “Number of writhing 0-10 min.” value (mice [2]; [7])?
A: The value was 7.6 ± 1.63.

Q: And the “Number of writhing 0-30 min.” value (mice [2]; [7])?
A: Its value is 23.3 ± 1.52.

Q: What about the “Number of writhing 10-20 min.” value (mice [2]; [7]) of the same molecule?
A: Its value is 9.2 ± 1.35.

Q: And the “Number of writhing 20-30 min.” value (mice [2]; [7])?
A: The value was 6.5 ± 2.50.

Q: And the “Number of writhing 0-10 min.” value (mice [2]; [8])?
A: Its value is 12.1 ± 1.91.

Q: What about the “Number of writhing 0-30 min.” value (mice [2]; [8]) of the same molecule?
A: The value was 31.6 ± 6.15.

Q: And the “Number of writhing 10-20 min.” value (mice [2]; [8])?
A: Its value is 11.6 ± 2.66.

Q: And the “Number of writhing 20-30 min.” value (mice [2]; [8])?
A: Its value is 7.9 ± 3.06.

Q: What about the “Number of writhing 0-10 min.” value (mice [2]; [9]) of the same molecule?
A: Its value is 8.9 ± 2.22.

Q: And the “Number of writhing 0-30 min.” value (mice [2]; [9])?
A: Its value is 19.4 ± 3.48.

Q: And the “Number of writhing 10-20 min.” value (mice [2]; [9])?
A: The value was 6.9 ± 1.90.

Q: What about the “Number of writhing 20-30 min.” value (mice [2]; [9]) of the same molecule?
A: Its value is 3.6 ± 1.19.

Q: And the “Number of writhing 0-10 min.” value (mice [2]; [10])?
A: The value was 2.4 ± 1.94.

Q: And the “Number of writhing 0-30 min.” value (mice [2]; [10])?
A: The value was 8.0 ± 3.08.

Q: And the “Number of writhing 10-20 min.” value (mice [2]; [10])?
A: The value was 4.0 ± 1.30.

Q: What about the “Number of writhing 20-30 min.” value (mice [2]; [10]) of the same molecule?
A: Its value is 1.6 ± 0.81.

Q: What about the “Number of writhing 0-10 min.” value (mice [2]; [11]) of the same molecule?
A: Its value is 5.7 ± 1.38.

Q: What about the “Number of writhing 0-30 min.” value (mice [2]; [11]) of the same molecule?
A: The value was 19.7 ± 3.56.

Q: What about the “Number of writhing 10-20 min.” value (mice [2]; [11]) of the same molecule?
A: Its value is 5.7 ± 1.38.

Q: What about the “Number of writhing 20-30 min.” value (mice [2]; [11]) of the same molecule?
A: Its value is 5.3 ± 2.15.

Q: What about the “Number of writhing 0-10 min.” value (mice [2]; [12]) of the same molecule?
A: The value was 10.6 ± 2.53.

Q: What about the “Number of writhing 0-30 min.” value (mice [2]; [12]) of the same molecule?
A: Its value is 27.4 ± 3.73.

Q: And the “Number of writhing 10-20 min.” value (mice [2]; [12])?
A: Its value is 10.3 ± 1.90.

Q: What about the “Number of writhing 20-30 min.” value (mice [2]; [12]) of the same molecule?
A: Its value is 6.6 ± 1.53.

Q: What about the “Number of writhing 0-10 min.” value (mice [2]; [13]) of the same molecule?
A: The value was 4.0 ± 1.22.

Q: What about the “Number of writhing 0-30 min.” value (mice [2]; [13]) of the same molecule?
A: The value was 14.9 ± 2.16.

Q: And the “Number of writhing 10-20 min.” value (mice [2]; [13])?
A: Its value is 6.7 ± 1.31.

Q: What about the “Number of writhing 20-30 min.” value (mice [2]; [13]) of the same molecule?
A: The value was 4.2 ± 1.02.

Q: And the “dose showing significant analgesic action against the negative control group” value (mice [2]; 15 minute-before subcutaneous administration)?
A: Its value is no less than 10 mg/kg.

Q: What about the “analgesic action compared with aspirin” value (mice [2]; oral administration 30 minutes before acetic acid) of the same molecule?
A: Its value is “strong analgesic action as compared with aspirin”.

Q: And the antihypertensive action [3]?
A: Its antihypertensive action is “exhibited an antihypertensive action”.

Q: What about the “Ultromotivity (count)” value (mice [4]; 50 mg/kg i.p.) of the same molecule?
A: The value was 2600 count.

Q: What about the “Ultromotivity (count)” value (mice [4]; 100 mg/kg i.p.) of the same molecule?
A: The value was 1800 count.

Q: What about the locomotor activity-inhibiting action (mice [5]) of the same molecule?
A: The locomotor activity-inhibiting action was “exhibited a locomotor activity-inhibiting action”.
